Reference: the supplement of paper PMC12076712

What was measured:
Experiment in all cases: pIC50, kinobeads binding competition
[1] = target: UniProt P57059; conditions: cell material: Lysate mix
In short: (§1)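 Fold changes relative to vehicle, from biological duplicates, were fitted with logistic dose-response models in the R drc package to give pIC50. These fold changes came from TMT10 LC-MS/MS quantification of digested Kinobeads-bound proteins. Compound was applied at nine concentrations (top 30 μM) either to live Jurkat cells in 1:4 steps for 60 min at 37 °C before lysis, or to Jurkat lysate or a 1:1:1:1 HEK293/K-562/HepG2/placenta lysate mix in 1:5 steps for 60 min at 4 °C.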

[2] = target: CDC7 (UniProt O00311)
In short: as §1

[3] = target: T1, TBK1 (UniProt Q9UHD2)
T1 sequence (whole entry): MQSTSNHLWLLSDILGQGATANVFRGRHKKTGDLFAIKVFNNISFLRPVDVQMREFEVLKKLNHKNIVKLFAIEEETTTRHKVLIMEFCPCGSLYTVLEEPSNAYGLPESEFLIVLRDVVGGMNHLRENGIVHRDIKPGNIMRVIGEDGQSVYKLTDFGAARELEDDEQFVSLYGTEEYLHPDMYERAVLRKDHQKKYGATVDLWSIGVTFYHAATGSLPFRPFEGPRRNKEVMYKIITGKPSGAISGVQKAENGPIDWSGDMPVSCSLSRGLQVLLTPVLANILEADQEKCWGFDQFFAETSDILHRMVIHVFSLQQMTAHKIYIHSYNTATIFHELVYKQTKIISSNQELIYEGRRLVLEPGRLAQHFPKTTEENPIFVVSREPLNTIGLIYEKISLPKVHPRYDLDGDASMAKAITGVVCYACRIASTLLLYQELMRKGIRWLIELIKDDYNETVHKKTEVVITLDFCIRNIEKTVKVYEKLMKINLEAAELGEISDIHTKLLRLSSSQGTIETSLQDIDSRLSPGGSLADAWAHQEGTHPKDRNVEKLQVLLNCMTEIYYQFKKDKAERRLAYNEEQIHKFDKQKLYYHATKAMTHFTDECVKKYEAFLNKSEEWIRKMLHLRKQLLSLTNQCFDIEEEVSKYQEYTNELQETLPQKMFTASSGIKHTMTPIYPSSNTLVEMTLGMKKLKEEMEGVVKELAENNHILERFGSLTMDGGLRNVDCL
In short: as §1

[4] = target: PAK2 (UniProt Q13177)
In short: as §1

[5] = target: MAPKAPK3 (UniProt Q16644)
MAPKAPK3, sequence (Q16644 whole entry, looked up): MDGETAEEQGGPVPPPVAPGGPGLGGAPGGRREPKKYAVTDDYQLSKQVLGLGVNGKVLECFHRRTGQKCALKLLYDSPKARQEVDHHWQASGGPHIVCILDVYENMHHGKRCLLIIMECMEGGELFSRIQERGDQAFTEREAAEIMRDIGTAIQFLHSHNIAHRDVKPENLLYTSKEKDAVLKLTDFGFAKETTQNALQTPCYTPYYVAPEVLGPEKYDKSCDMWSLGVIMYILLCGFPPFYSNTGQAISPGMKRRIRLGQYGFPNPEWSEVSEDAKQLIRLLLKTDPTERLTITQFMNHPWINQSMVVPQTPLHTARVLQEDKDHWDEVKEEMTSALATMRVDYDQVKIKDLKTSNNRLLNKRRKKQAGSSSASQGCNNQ
In short: as §1

[6] = target: UniProt Q9Y6M4; conditions: cell material: Lysate mix
UniProt Q9Y6M4, sequence (Q9Y6M4 whole entry, looked up): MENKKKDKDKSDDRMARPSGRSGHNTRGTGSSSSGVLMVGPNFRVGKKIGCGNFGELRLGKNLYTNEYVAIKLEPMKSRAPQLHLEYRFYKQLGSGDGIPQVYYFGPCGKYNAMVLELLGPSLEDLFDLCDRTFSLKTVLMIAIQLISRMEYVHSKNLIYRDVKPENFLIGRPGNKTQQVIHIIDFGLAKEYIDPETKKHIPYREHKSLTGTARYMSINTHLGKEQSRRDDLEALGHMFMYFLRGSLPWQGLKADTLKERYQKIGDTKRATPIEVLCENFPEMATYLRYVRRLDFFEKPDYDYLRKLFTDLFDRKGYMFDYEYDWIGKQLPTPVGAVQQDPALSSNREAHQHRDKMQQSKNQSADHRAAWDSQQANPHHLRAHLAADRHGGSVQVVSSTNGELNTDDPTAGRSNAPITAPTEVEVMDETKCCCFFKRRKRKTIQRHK
In short: as §1

[7] = target: CDK10 (UniProt Q15131)
In short: as §1

[8] = target: DAPK1 (UniProt P53355); conditions: cell material: Lysate mix
In short: as §1

[9] = target: UniProt Q9HCP0
In short: as §1

[10] = target: T2, STRADA (UniProt Q7RTN6)
T2 sequence (whole entry): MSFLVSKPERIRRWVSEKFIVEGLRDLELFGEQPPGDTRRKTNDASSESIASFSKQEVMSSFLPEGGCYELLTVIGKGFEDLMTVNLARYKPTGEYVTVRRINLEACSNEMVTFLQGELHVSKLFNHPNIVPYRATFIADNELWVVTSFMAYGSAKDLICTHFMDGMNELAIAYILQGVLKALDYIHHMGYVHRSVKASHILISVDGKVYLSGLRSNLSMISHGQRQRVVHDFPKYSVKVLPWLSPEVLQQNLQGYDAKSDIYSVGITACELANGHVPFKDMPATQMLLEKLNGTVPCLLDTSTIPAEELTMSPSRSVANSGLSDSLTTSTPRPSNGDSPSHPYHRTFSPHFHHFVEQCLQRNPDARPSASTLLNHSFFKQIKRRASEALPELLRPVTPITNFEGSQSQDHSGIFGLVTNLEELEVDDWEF
In short: as §1

[11] = target: PRPF4B (UniProt Q13523); conditions: cell material: Lysate mix
In short: as §1

[12] = target: UniProt O95747
In short: as §1

[13] = target: UniProt P80192
UniProt P80192, sequence (P80192 whole entry, looked up): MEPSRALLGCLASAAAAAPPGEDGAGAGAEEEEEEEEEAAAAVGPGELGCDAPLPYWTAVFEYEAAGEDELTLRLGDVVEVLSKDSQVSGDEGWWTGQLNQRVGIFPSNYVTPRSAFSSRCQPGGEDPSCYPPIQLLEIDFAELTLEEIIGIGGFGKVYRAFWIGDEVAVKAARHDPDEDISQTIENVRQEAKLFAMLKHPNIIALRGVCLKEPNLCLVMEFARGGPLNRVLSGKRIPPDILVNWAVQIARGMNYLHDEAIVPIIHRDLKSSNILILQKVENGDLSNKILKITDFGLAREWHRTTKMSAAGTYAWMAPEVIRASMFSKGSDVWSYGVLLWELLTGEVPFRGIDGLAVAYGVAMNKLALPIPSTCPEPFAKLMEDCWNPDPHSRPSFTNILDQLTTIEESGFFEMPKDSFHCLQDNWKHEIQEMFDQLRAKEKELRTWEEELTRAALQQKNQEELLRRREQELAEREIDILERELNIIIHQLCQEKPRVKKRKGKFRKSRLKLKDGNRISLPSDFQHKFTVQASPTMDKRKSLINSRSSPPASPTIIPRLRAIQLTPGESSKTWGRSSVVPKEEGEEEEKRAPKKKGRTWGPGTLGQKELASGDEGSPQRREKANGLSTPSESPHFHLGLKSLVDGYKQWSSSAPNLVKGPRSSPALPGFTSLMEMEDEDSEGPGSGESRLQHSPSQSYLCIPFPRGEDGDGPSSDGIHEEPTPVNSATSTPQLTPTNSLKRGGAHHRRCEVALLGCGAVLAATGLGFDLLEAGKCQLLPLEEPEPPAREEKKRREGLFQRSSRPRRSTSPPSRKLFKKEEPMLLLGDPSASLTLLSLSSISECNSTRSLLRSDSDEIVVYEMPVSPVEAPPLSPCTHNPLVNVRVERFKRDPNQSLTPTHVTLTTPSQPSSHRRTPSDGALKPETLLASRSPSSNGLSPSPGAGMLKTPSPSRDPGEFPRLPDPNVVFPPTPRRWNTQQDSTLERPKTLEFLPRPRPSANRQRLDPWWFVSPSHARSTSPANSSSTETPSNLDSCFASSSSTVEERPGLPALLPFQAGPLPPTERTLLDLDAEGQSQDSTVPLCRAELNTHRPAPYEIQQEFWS
In short: as §1

[14] = target: RPS6KA6 (UniProt Q9UK32); conditions: cell material: Lysate mix
RPS6KA6, sequence (Q9UK32 whole entry): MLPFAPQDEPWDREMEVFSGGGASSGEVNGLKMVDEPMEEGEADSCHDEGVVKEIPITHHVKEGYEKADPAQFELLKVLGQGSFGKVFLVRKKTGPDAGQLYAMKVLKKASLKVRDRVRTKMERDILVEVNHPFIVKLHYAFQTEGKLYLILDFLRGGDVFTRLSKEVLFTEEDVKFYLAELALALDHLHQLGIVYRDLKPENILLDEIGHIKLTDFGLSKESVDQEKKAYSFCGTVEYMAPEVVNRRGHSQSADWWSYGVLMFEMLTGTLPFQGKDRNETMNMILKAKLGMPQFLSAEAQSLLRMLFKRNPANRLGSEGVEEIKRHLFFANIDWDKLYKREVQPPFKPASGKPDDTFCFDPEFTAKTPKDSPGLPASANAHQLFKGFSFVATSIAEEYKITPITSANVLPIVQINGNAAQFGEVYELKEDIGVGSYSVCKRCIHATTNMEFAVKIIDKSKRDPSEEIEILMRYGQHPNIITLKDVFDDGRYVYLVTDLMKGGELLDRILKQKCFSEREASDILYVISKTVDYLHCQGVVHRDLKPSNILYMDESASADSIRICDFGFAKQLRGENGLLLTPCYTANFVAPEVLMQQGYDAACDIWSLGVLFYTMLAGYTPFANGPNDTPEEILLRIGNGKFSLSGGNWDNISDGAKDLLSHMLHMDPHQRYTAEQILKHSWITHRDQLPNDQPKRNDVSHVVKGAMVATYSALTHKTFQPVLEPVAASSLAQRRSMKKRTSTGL
In short: as §1

[15] = target: UniProt P16234; conditions: cell material: Lysate mix
In short: as §1

[16] = target: CLK3 (UniProt P49761)
CLK3, sequence (P49761 whole entry, looked up): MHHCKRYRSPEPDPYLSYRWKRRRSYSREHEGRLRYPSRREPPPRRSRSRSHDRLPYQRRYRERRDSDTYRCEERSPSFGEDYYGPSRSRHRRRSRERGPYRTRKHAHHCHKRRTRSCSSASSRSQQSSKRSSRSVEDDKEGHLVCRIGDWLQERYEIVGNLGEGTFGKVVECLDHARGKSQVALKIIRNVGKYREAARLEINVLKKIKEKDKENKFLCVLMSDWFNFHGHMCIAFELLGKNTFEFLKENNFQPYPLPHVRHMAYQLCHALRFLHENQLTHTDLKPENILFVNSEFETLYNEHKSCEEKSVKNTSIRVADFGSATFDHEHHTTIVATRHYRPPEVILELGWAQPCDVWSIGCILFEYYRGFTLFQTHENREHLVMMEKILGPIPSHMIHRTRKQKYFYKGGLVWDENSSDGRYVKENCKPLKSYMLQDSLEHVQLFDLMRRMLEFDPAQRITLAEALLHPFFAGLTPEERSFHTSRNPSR
In short: as §1

[17] = target: T3, SGK2 (UniProt Q9HBY8); conditions: cell material: Lysate mix
T3 sequence (whole entry): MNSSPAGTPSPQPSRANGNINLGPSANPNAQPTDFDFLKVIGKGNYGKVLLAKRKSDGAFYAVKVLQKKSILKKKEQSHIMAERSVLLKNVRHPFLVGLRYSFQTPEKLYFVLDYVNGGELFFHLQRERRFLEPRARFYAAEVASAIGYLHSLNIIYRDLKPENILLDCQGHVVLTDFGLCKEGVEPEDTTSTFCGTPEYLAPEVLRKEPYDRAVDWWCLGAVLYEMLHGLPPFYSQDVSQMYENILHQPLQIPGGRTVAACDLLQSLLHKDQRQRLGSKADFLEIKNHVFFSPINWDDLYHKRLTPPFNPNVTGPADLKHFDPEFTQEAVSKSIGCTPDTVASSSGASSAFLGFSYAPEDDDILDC
In short: as §1

[18] = target: UniProt Q02750
UniProt Q02750, sequence (Q02750 whole entry): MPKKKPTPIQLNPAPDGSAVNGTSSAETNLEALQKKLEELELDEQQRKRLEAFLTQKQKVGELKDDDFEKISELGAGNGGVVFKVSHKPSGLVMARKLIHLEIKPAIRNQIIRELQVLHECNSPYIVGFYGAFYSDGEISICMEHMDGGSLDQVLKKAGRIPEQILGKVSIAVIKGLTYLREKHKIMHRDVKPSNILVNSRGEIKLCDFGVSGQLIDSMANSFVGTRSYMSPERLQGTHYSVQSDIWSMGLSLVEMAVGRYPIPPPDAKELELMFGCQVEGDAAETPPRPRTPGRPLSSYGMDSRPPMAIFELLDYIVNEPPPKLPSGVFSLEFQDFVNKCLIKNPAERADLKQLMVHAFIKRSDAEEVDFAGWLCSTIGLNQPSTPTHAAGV
In short: as §1

[19] = target: UniProt Q15303; conditions: cell material: Lysate mix
UniProt Q15303, sequence (Q15303 whole entry): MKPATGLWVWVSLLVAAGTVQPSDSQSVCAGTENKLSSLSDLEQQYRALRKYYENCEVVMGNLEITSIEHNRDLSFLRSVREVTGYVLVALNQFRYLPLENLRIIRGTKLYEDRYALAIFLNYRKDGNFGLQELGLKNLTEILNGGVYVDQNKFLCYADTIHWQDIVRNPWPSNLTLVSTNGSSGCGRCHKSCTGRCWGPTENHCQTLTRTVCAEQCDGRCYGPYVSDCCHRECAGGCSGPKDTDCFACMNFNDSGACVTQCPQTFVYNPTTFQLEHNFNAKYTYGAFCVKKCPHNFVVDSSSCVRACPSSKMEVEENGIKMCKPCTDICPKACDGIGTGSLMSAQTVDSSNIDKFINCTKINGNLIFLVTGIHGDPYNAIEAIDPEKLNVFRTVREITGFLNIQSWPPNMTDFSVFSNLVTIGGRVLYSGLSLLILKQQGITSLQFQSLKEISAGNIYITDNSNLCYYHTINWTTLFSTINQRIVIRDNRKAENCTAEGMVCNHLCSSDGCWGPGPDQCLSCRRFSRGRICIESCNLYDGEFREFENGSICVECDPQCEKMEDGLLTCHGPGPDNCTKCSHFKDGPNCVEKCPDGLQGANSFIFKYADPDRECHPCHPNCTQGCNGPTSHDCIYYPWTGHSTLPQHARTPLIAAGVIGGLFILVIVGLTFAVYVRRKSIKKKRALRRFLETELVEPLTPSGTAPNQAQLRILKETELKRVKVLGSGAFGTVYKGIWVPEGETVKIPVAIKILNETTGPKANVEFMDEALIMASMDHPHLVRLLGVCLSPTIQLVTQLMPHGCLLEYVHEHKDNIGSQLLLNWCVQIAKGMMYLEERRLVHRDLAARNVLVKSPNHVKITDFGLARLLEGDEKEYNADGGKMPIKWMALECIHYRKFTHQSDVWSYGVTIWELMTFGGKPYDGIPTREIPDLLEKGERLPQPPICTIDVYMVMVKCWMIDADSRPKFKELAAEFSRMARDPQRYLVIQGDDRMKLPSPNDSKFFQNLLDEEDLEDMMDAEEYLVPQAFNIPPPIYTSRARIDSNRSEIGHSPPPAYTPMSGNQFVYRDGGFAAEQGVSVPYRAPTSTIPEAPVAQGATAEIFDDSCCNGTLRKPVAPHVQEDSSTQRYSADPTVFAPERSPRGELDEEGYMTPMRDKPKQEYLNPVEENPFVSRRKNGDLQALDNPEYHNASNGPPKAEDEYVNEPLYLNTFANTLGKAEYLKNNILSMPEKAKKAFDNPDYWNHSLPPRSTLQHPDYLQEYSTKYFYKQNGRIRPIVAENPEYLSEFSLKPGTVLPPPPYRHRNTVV
In short: as §1

SMILES	pIC50 [1]	pIC50 ([2]; cell material: Jurkat cells)	pIC50 ([3]; cell material: Jurkat cells)	pIC50 ([3]; cell material: Jurkat lysate)	pIC50 ([3]; cell material: Lysate mix)	pIC50 ([4]; cell material: Jurkat cells)	pIC50 ([4]; cell material: Jurkat lysate)	pIC50 ([5]; cell material: Jurkat cells)	pIC50 ([5]; cell material: Jurkat lysate)	pIC50 [6]	pIC50 ([7]; cell material: Jurkat cells)	pIC50 ([7]; cell material: Jurkat lysate)	pIC50 ([7]; cell material: Lysate mix)	pIC50 [8]	pIC50 ([9]; cell material: Jurkat cells)	pIC50 ([9]; cell material: Jurkat lysate)	pIC50 ([10]; cell material: Jurkat cells)	pIC50 ([10]; cell material: Jurkat lysate)	pIC50 ([10]; cell material: Lysate mix)	pIC50 [11]	pIC50 ([12]; cell material: Jurkat cells)	pIC50 ([12]; cell material: Jurkat lysate)	pIC50 ([12]; cell material: Lysate mix)	pIC50 ([13]; cell material: Jurkat cells)	pIC50 ([13]; cell material: Jurkat lysate)	pIC50 ([13]; cell material: Lysate mix)	pIC50 [14]	pIC50 [15]	pIC50 ([16]; cell material: Jurkat lysate)	pIC50 ([16]; cell material: Lysate mix)	pIC50 [17]	pIC50 ([18]; cell material: Jurkat cells)	pIC50 ([18]; cell material: Jurkat lysate)	pIC50 ([18]; cell material: Lysate mix)	pIC50 ([2]; cell material: Lysate mix)	pIC50 ([9]; cell material: Lysate mix)	pIC50 [19]	pIC50 ([4]; cell material: Lysate mix)	pIC50 ([5]; cell material: Lysate mix)
C#CCNC(=O)c1cc(Nc2cc(C3CC3)[nH]n2)nc(N2CCN(Cc3ccc(S(=O)(=O)F)cc3)CC2)n1	< 4.52	5.68	5.98	< 4.52	5.28	< 4.52	< 4.52	6.53	6.64	< 4.52	6.16	6.04	5.82	< 4.52	5.12	< 4.52	5.99	5.36	5.7	< 4.52	6.16	5.4	5.54	6.42	5.9	6.2	4.94	< 4.52	< 4.52	5.15	6.52	5.86	< 4.52	5.59					
C#CCNC(=O)c1cc(Nc2cc(C)[nH]n2)nc(N2CCN(Cc3ccc(S(=O)(=O)F)cc3)CC2)n1					< 4.52									< 4.52													< 4.52	< 4.52		< 4.52	5.8				< 4.52	< 4.52	4.99		
Cc1cc(Nc2cc(C(=O)NCCNC(=O)OC3CC/C=C/CCC3)nc(N3CCN(Cc4ccc(S(=O)(=O)F)cc4)CC3)n2)n[nH]1 (stereo unspecified)					< 4.52								< 4.52	< 4.52					< 4.52	< 4.52			< 4.52			< 4.52	< 4.52				< 4.52			< 4.52		< 4.52	< 4.52	< 4.52	
O=C(NCCNC(=O)c1cc(Nc2cc(C3CC3)[nH]n2)nc(N2CCN(Cc3ccc(S(=O)(=O)F)cc3)CC2)n1)OC1CC/C=C/CCC1 (stereo unspecified)	< 4.52		5.71	< 4.52	< 4.52	< 4.52		6.36	6.28	< 4.52	6.06		< 4.52	< 4.52		< 4.52	5.78	< 4.52	< 4.52	< 4.52	5.3	< 4.52	< 4.52	6.19	< 4.52	< 4.52	< 4.52	< 4.52	< 4.52	< 4.52			< 4.52	< 4.52		< 4.52	< 4.52		< 4.52
CCNC(=O)c1cc(Nc2cc(C)[nH]n2)nc(N2CCN(Cc3ccc(S(=O)(=O)F)cc3)CC2)n1	< 4.52									< 4.52													< 4.52							< 4.52	5.46					< 4.52	5.04		5.74
CCNC(=O)c1cc(Nc2cc(C3CC3)[nH]n2)nc(N2CCN(Cc3ccc(S(=O)(=O)F)cc3)CC2)n1	< 4.52				5.34					4.89			5.29	4.6					5.29	5.12			5.24			5.78	4.87	< 4.52		4.85	5.7			5.78	4.57		4.96		
